Surface tension and Mortality by ingestion data for 2 compounds are collected here from US20210076683A1, “USE OF BACILLUS METHYLOTROPHICUS AS A STIMULANT OF PLANT GROWTH AND BIOLOGICAL CONTROL MEANS, AND ISOLATES OF SAID SPECIES” (UNIVERSIDAD DE GRANADA, priority 2014, published 2021).

Data set [1] is described as follows: Surfactant activity of the lipopeptides (CMC, surface tension). It is filed as physicochemical. The note with it: at the CMC 0.0025%. An excerpt: After extracting the lipopeptides following the method of Cooper et al. 1981, a yield of 0.12 g/l and 0.10 g/l of culture was obtained for strains XT1 and XT2, respectively. The type strain produced 0.6 g/l. Lipopeptide production has not been described in the case of the Bacillus strain of the commercial preparation Botrybel. More specifically, in addition to surfactin, strain XT1 object of the present invention produces other surfactant lipopeptides such as fengycin and lichenysin.
The cellular dry weight (CDW) of strains XT1, XT2 and of type strain is 2.7 g/l, 2.5 g/l and 2.9 g/l, respectively. In the case of strain XT1, the critical micelle concentration (CMC) is 0.0025% (0.025 mg/ml); a surface tension of 29.7 mN/m was obtained with this value. In the case of the surfactin produced by B. subtilis and marketed by Sigma®, values of 26.7 mN/m at the same CMC were obtained. In other words, strain XT1 produces very active lipopeptides surfactants showing activity similar to the surfactin available on the market.

The subject of another data set is Anthocoris nemoralis. The experiment in a line: Mortality by ingestion in Anthocoris nemoralis. The note with it: observed 6 days; cultures 5×10^8 CFU/ml, surfactants and Tween 80 1/1000; water control 10.

*1 amine or outer side, *2 acyl side, *3 side chain or, on linkers, in order; H or OH if unused. Where a SMILES comes first, the peptide text is derived from it. Bridges are numbered along the chain shown (N, C = ends). [ ]: non-standard residue; d: D form. X1 = CC(C)CCCCCCCCC[C@H](CC(=O)[*:1])O[*:2]

One may read the surface tension as the force per length acting along the surface. In data set [1], `CC(C)CCCCCCCCC[C@@H]1CC(=O)N[C@@H](CCC(=O)O)C(=O)N[C@@H](CC(C)C)C(=O)N[C@H](CC(C)C)C(=O)N[C@@H](C(C)C)C(=O)N[C@@H](CC(=O)O)C(=O)N[C@H](CC(C)C)C(=O)N[C@@H](CC(C)C)C(=O)O1` [surfactin] (EL[dL]VD[dL]L; linker N-C via X1) yielded a surface tension of 26.7 mN/m.

On to Tween 80, for which, in the data set with Anthocoris nemoralis, the Mortality by ingestion is 5 percentage of individuals.
